Source: the supplement of paper PMC10307832

How the values were obtained:
Test in all cases: relative viability (nuclei count vs DMSO), 5 days (fraction); higher = more cells survive
Carboplatin + Linsitinib = compound: C1CC(C1)(C(=O)O)C(=O)O.[NH2-].[NH2-].[Pt+2] [Carboplatin] + C[C@]1(O)C[C@@H](c2nc(-c3ccc4ccc(-c5ccccc5)nc4c3)c3c(N)nccn32)C1 [Linsitinib] (partner 1 µM)
Method in brief: (§1)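 Relative viability divides the nuclei count in treated wells by that in vehicle wells. Lung cancer cell lines were seeded in 1536-well plates, dosed by pin tool the next day, and fixed and stained after 5 days in one step with final 0.05% Triton X-100, 1% formaldehyde and 1 ug/ml Hoechst. Dosing was a single drug or a fixed anchor-drug dose plus five library-drug doses (not always all listed) in √10 steps, and values are medians of duplicate plates imaged at 4×.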

Carboplatin + Decitabine = compound: C1CC(C1)(C(=O)O)C(=O)O.[NH2-].[NH2-].[Pt+2] [Carboplatin] + Nc1ncn([C@H]2C[C@H](O)[C@@H](CO)O2)c(=O)n1 [Decitabine] (partner 2 µM)
Method in brief: as §1

Carboplatin + Crizotinib = compound: C1CC(C1)(C(=O)O)C(=O)O.[NH2-].[NH2-].[Pt+2] [Carboplatin] + C[C@@H](Oc1cc(-c2cnn(C3CCNCC3)c2)cnc1N)c1c(Cl)ccc(F)c1Cl [Crizotinib] (partner 1 µM)
Method in brief: as §1

MLN4924 + Bortezomib = compound: NS(=O)(=O)OC[C@@H]1C[C@@H](n2ccc3c(N[C@H]4CCc5ccccc54)ncnc32)C[C@@H]1O [MLN4924] + CC(C)C[C@H](NC(=O)[C@H](Cc1ccccc1)NC(=O)c1cnccn1)B(O)O [Bortezomib] (partner 0.002 µM)
Method in brief: as §1

Cell Line	relative viability (Carboplatin + Linsitinib; first compound 0.08 µM)	relative viability (Carboplatin + Linsitinib; first compound 0.253 µM)	relative viability (Carboplatin + Linsitinib; first compound 0.8 µM)	relative viability (Carboplatin + Linsitinib; first compound 2.53 µM)	relative viability (Carboplatin + Linsitinib; first compound 8 µM)	relative viability (Carboplatin + Decitabine; first compound 0.08 µM)	relative viability (Carboplatin + Decitabine; first compound 0.253 µM)	relative viability (Carboplatin + Decitabine; first compound 0.8 µM)	relative viability (Carboplatin + Decitabine; first compound 2.53 µM)	relative viability (Carboplatin + Decitabine; first compound 8 µM)	relative viability (Carboplatin + Crizotinib; first compound 0.08 µM)	relative viability (Carboplatin + Crizotinib; first compound 0.253 µM)	relative viability (Carboplatin + Crizotinib; first compound 0.8 µM)	relative viability (Carboplatin + Crizotinib; first compound 2.53 µM)	relative viability (Carboplatin + Crizotinib; first compound 8 µM)	relative viability (MLN4924 + Bortezomib; first compound 0.04 µM)	relative viability (MLN4924 + Bortezomib; first compound 0.1265 µM)	relative viability (MLN4924 + Bortezomib; first compound 0.4 µM)	relative viability (MLN4924 + Bortezomib; first compound 1.265 µM)	relative viability (MLN4924 + Bortezomib; first compound 4 µM)
NCI-H1792	0.61	0.518	0.528	0.393	0.503	0.475	0.562	0.497	0.372	0.291	1.07	1.04	0.945	0.888	0.866	0.938	1	1.09	0.663	0.425
NCI-H1915	1.07	1.11	1.04	1.01	0.723	0.264	0.258	0.249	0.23	0.258	0.873	0.929	0.875	0.756	0.521	0.982	0.941	0.815	0.22	0.187
NCI-H1975	0.894	0.986	0.999	1.02	0.903	0.416	0.399	0.402	0.43	0.367	0.955	0.943	0.919	0.969	0.911	0.526	0.452	0.26	0.169	0.149
NCI-H1993	0.773	0.798	0.779	0.817	0.701	0.64	0.661	0.559	0.559	0.473	0.958	0.909	0.892	0.775	0.723	0.856	0.72	0.664	0.383	0.474
NCI-H2009	1.21	1.14	1.09	1.09	0.807	0.352	0.379	0.345	0.364	0.357	1.06	1	0.987	0.965	0.611	0.889	0.275	0.27	0.079	0.0747
NCI-H2023	0.745	0.644	0.73	0.576	0.205	0.238	0.224	0.185	0.141	0.129	0.633	0.604	0.566	0.419	0.144	0.927	0.796	0.113	0.0794	0.0811
NCI-H2085	0.943	0.967	0.845	0.858	0.764	0.548	0.57	0.506	0.544	0.474	1.01	0.932	0.778	0.754	0.676	1.09	1.09	1.1	0.76	0.648
NCI-H2087	1.09	0.857	0.782	0.871	0.585	0.242	0.28	0.307	0.227	0.237	0.817	0.907	0.8	0.845	0.769	0.746	0.717	0.468	0.151	0.154
NCI-H2126	0.724	0.741	0.713	0.687	0.667	0.607	0.573	0.544	0.59	0.51	1.04	1.06	1.02	0.962	1	1.17	1.16	0.907	0.392	0.348
NCI-H2347	1.05	1.04	0.967	0.893	0.841	0.615	0.428	0.621	0.653	0.552	0.903	0.697	0.635	0.571	0.632	0.79	0.933	0.532	0.392	0.395
NCI-H2405	0.957	0.871	0.882	0.833	0.842	0.705	0.784	0.809	0.659	0.442	0.901	0.906	0.847	0.813	0.754	0.935	0.957	0.639	0.266	0.283
NCI-H3122	0.947	1.01	0.991	1.08	0.973	0.49	0.433	0.437	0.397	0.436	0.3	0.299	0.275	0.323	0.28	1.07	0.752	0.35	0.208	0.146
PC-3 [JPC-3]	0.953	0.942	0.888	0.919	0.931	0.835	0.75	0.795	0.734	0.7	1.03	1.04	0.962	0.966	0.902	0.857	0.819	0.573	0.328	0.282
PC-14	0.979	0.931	0.939	0.921	0.55	0.179	0.209	0.165	0.119	0.0887	0.895	0.856	0.851	0.83	0.532	0.857	0.823	0.369	0.172	0.101
RERF-LC-KJ	0.913	0.895	0.97	0.807	0.726	0.627	0.665	0.646	0.574	0.422	0.824	0.861	0.84	0.72	0.631	0.874	0.828	0.244	0.24	0.28
SK-LU-1	1.23	1.02	1.11	1.06	0.624	0.719	0.677	0.625	0.586	0.46	1.09	1.08	1.05	0.961	0.626	0.856	0.866	0.293	0.187	0.28
SW 1573	0.757	0.621	0.642	0.738	0.557	0.493	0.524	0.587	0.4	0.26	0.821	0.781	0.652	0.886	0.661	1.03	0.932	0.249	0.0788	0.0726
